Assay [1] concerns the target T1, human B1R (Homo sapiens, UniProt P46663).
T1 construct: expressed in transfected cells; host or cells: CHO K1 cells
T1 sequence (P46663 1-353): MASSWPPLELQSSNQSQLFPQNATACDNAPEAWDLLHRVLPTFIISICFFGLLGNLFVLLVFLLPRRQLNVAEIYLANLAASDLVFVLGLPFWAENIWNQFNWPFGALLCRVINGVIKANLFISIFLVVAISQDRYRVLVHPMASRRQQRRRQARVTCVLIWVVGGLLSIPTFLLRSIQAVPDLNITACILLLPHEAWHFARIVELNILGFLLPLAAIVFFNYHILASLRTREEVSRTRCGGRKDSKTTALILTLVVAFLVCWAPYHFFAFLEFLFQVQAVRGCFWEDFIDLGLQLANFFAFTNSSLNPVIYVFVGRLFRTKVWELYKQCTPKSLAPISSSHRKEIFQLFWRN
Nature of the assay: Functional investigation on the bradykinin 1 receptor (B1R), cell-based fluorescent calcium-mobilization assay (FLIPR/Novostar), human. To be noted: 10 μM test substance; CHO K1 cells stably transfected with human B1R gene; agonist Lys-Des-Arg9-bradykinin at EC80; % inhibition compared with maximum achievable inhibition; read-out: B1R antagonism, human [10 μM] % inhibition. In outline:
(§1)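 Stably transfected CHO K1 cells loaded with Fluo-4-AM; fluorescence peak read by FLIPR/Novostar (ex 488, em 540 nm). Test compounds at 10 μM give % activation vs Lys-Des-Arg9-BK (human) or Des-Arg9-BK (rat); after 6-20 min, agonist added at EC80 and % inhibition vs maximum achievable inhibition derived.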

Assay [2] deals with T2, B1R of rats (Rattus norvegicus, UniProt P97583).
T2 construct: expressed in transfected cells; host or cells: CHO K1 cells
T2 sequence (P97583 1-337): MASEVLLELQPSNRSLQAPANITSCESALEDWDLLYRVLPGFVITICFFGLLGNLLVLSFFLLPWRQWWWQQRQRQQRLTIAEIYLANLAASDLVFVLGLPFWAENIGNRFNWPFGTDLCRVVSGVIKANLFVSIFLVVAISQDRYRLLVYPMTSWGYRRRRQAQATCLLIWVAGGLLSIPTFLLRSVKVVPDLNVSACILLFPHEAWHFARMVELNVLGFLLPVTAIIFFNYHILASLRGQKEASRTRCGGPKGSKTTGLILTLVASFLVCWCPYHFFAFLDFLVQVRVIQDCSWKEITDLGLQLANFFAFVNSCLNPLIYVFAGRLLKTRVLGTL
The assay can be described thus: Functional investigation on the bradykinin 1 receptor (B1R), cell-based fluorescent calcium-mobilization assay (FLIPR/Novostar), rat. The conditions noted are these: 10 μM test substance; CHO K1 cells stably transfected with rat B1R gene; agonist Des-Arg9-bradykinin at EC80; % inhibition compared with maximum achievable inhibition; read-out: B1R antagonism, rat [10 μM] % inhibition. The gist of the method: as §1

The structures appear in SMILES notation.

As to `CN1CCN(C2(CNC(=O)c3ccccc3)CCN(C(=O)CC(NS(=O)(=O)c3ccc4ccccc4c3)c3ccccc3)CC2)CC1` (stereo not shown) [Example 16, N-((4-(4-methylpiperazin-1-yl)-1-(3-(naphthalene-2-sulfonamido)-3-phenylpropanoyl)piperidin-4-yl)methyl)benzamide], the inhibition at 10 µM in assay [1] stood at 94%; in assay [2] it was 31%.

For `COc1cc(C)c(S(=O)(=O)N(CCOCC(=O)N2CCC(CNC(=O)c3ccncc3)(N3CCN(C4CC4)CC3)CC2)C2CC2)c(C)c1` [Example 44, N-((1-(2-(2-(N-Cyclopropyl-4-methoxy-2,6-dimethylphenylsulfonamido)ethoxy)acetyl)-4-(4-cyclopropylpiperazin-1-yl)piperidin-4-yl)methyl)isonicotinamide], the figures for the inhibition at 10 µM in assay [1] and in assay [2] were 100% and 102%, respectively.

Consider `Cc1cc(S(=O)(=O)N2CCCCC2CCC(=O)N2CCC(CNC(=O)c3ccccc3)(N3CCN(C)CC3)CC2)c(C)cc1Cl` (stereo not shown) [Example 6, N-((1-(3-(1-(4-chloro-2,5-dimethylphenylsulfonyl)piperidin-2-yl)propanoyl)-4-(4-methylpiperazin-1-yl)piperidin-4-yl)methyl)benzamide], for which the values for the inhibition at 10 µM in assay [1] and in assay [2] were 99% and 24%, respectively.

As to `COc1cc(C)c(S(=O)(=O)N(CCOCC(=O)N2CCC(CN3Cc4ccccc4C3=O)(N3CCN(C4CC4)CC3)CC2)C2CC2)c(C)c1` [Example 42, N-Cyclopropyl-N-(2-(2-(4-(4-cyclopropylpiperazin-1-yl)-4-((1-oxoisoindolin-2-yl)methyl)piperidin-1-yl)-2-oxoethoxy)ethyl)-4-methoxy-2,6-dimethylbenzenesulfonamide], the inhibition at 10 µM in assay [1] amounted to 97%; in assay [2], 96%.

With `COc1cc(C)c(S(=O)(=O)N(C)CCOCC(=O)N2CCC(CNC(=O)c3ccncc3)(N3CCN(C)CC3)CC2)c(C)c1C` [Example 51, N-((1-(2-(2-(4-Methoxy-N,2,3,6-tetramethylphenylsulfonamido)ethoxy)acetyl)-4-(4-methylpiperazin-1-yl)piperidin-4-yl)methyl)isonicotinamide], the inhibition at 10 µM in assay [1] amounted to 100%; in assay [2], 103%.

Turning to `COc1cc(C)c(S(=O)(=O)N(C)CCOCC(=O)N2CCC(CNC(=O)c3ccccc3)(N3CCN(C)CC3)CC2)c(C)c1` [Example 24, N-((1-(2-(2-(4-methoxy-N,2,6-trimethylphenylsulfonamido)ethoxy)acetyl)-4-(4-methylpiperazin-1-yl)piperidin-4-yl)methyl)benzamide], the figures for the inhibition at 10 µM in assay [1] and in assay [2] were 103% and 101%, respectively.

For `CC(=O)NCC1(N2CCN(c3ccncc3)CC2)CCN(C(=O)CCC2CCCCN2S(=O)(=O)c2cc(C)c(Cl)cc2C)CC1` (stereo not shown) [Example 11, N-((1-(3-(1-(4-chloro-2,5-dimethylphenylsulfonyl)piperidin-2-yl)propanoyl)-4-(4-(pyridin-4-yl)piperazin-1-yl)piperidin-4-yl)methyl)acetamide], the inhibition at 10 µM in assay [1] turned out to be 102%; in assay [2], 75%.

Consider `CN1CCN(C2(CNC(=O)c3ccncc3)CCN(C(=O)CC(NS(=O)(=O)c3ccc4ccccc4c3)c3ccccc3)CC2)CC1` (stereo not shown) [Example 37, N-((4-(4-methylpiperazin-1-yl)-1-(3-(naphthalene-2-sulfonamido)-3-phenylpropanoyl)piperidin-4-yl)methyl)isonicotinamide], for which the inhibition at 10 µM in assay [1] came to 46%; in assay [2], 71%.

For the molecule `CN1CCN(C2(CNC(=O)c3ccccn3)CCN(C(=O)COCC3CCc4ccccc4N3S(=O)(=O)c3ccc(Cl)c(Cl)c3)CC2)CC1` (stereo not shown) [Example 20, N-((1-(2-((1-(3,4-dichlorophenylsulfonyl)-1,2,3,4-tetrahydroquinolin-2-yl)-methoxy)acetyl)-4-(4-methylpiperazin-1-yl)piperidin-4-yl)methyl)picolinamide], the inhibition at 10 µM was 91% in assay [1] and 60% in assay [2].

On to `COc1cc(C)c(S(=O)(=O)N2c3ccccc3OCC2COCC(=O)N2CCC(CNC(=O)c3ccncc3)(N3CCN(C)CC3)CC2)c(C)c1` (stereo not shown) [Example 49, N-((1-(2-((4-(4-Methoxy-2,6-dimethylphenylsulfonyl)-3,4-dihydro-2H-benzo[b][1,4]oxazin-3-yl)methoxy)acetyl)-4-(4-methylpiperazin-1-yl)piperidin-4-yl)methyl)isonicotinamide], for which the inhibition at 10 µM in assay [1] is 100%; in assay [2] it was 102%.

Turning to `CN1CCN(C2(CNC(=O)c3ccccn3)CCN(C(=O)CC3CCCCN3S(=O)(=O)c3cccc(C(F)(F)F)c3)CC2)CC1` (stereo not shown) [Example 18, N-((4-(4-methylpiperazin-1-yl)-1-(2-(1-(3-(trifluoromethyl)phenylsulfonyl)-piperidin-2-yl)acetyl)piperidin-4-yl)methyl)picolinamide], the figures for the inhibition at 10 µM in assay [1] and in assay [2] were 97% and 17%, respectively.

Consider `COc1cc(C)c(S(=O)(=O)N2CCCCC2COCC(=O)N2CCC(CNC(=O)c3ccncc3)(N3CCN(C)CC3)CC2)c(C)c1` (stereo not shown) [Example 28, N-((1-(2-((1-(4-methoxy-2,6-dimethylphenylsulfonyl)piperidin-2-yl)methoxy)acetyl)-4-(4-methylpiperazin-1-yl)piperidin-4-yl)methyl)-isonicotinamide], for which the inhibition at 10 µM in assay [1] and in assay [2] was 102% each time.

Regarding `CN1CCN(C2(CNC(=O)c3cccnc3)CCN(C(=O)COCC3CCc4ccccc4N3S(=O)(=O)c3ccc(Cl)c(Cl)c3)CC2)CC1` (stereo not shown) [Example 40, N-((1-(2-((1-(3,4-dichlorophenylsulfonyl)-1,2,3,4-tetrahydroquinolin-2-yl)methoxy)acetyl)-4-(4-methylpiperazin-1-yl)piperidin-4-yl)methyl)nicotinamide], the inhibition at 10 µM turned out to be 49% in assay [1] and 103% in assay [2].

`COc1cc(C)c(S(=O)(=O)N2CCCCC2COCC(=O)N2CCC(CNC(C)=O)(N3CCN(C)CC3)CC2)c(C)c1` (stereo not shown) [Example 27, N-((1-(2-((1-(4-methoxy-2,6-dimethylphenylsulfonyl)piperidin-2-yl)methoxy)acetyl)-4-(4-methylpiperazin-1-yl)piperidin-4-yl)methyl)acetamide]: the inhibition at 10 µM in assay [1] is 103%; in assay [2], 102%.

By inhibition is commonly meant the drop in the measured response relative to a control, in per cent.

Values taken from patent publication US8541573B2, “Substituted sulfonamide compounds” (Gruenenthal GmbH, priority 2008, dated 2013).
